The results in this text go back to ChEMBL document CHEMBL1146300, “High affinity Grb2-SH3 domain ligand incorporating Cbeta-substituted prolines in a Sos-derived decapeptide” (Bioorg Med Chem, 2007).

The experiment concerns the target Growth factor receptor-bound protein 2 (Homo sapiens, UniProt P62993). The experiment can be described thus: Binding affinity to recombinant Grb2-SH3 domain by fluorescence spectroscopy.

The source made the active and inactive calls. No cut-off for these calls is given here. Numbered stars: 1 amine (or outer) side, 2 acyl side, 3 side chain; on linkers, the order of the positions; unused ones are H or OH. Square brackets hold non-standard residues; d marks the D form. Peptide text beside a SMILES is read from it. X4 = O=C([C@@H]1C(CS(=O)(=O)c2ccccc2)CCN1[*:1])[*:2]; X3 = C[S+]([O-])CC1CCN([*:1])[C@@H]1C(=O)[*:2]; X2 = O=C(O)CC1CCN([*:1])[C@@H]1C(=O)[*:2]; X6 = CC(C)C1CCN([*:1])[C@@H]1C(=O)[*:2]; X5 = O=C([C@@H]1C(CO)CCN1[*:1])[*:2]; X1 = CC1CCN([*:1])[C@@H]1C(=O)[*:2]

With `CC(=O)N[C@H](C(=O)N1CCC[C@H]1C(=O)N1CCC[C@H]1C(=O)N1CCC[C@H]1C(=O)N1CCC(C)[C@H]1C(=O)N1CCC[C@H]1C(=O)N1CCC[C@H]1C(=O)N[C@@H](CCCNC(=N)N)C(=O)N[C@@H](CCCNC(=N)N)C(=O)N[C@@H](CCCNC(=N)N)C(=O)N[C@H](C(=O)N1CCC[C@H]1C(=O)N1CCC[C@H]1C(=O)N1CCC[C@H]1C(=O)N1CCC(C)[C@H]1C(=O)N1CCC[C@H]1C(=O)N1CCC[C@H]1C(=O)N[C@@H](CCCNC(=N)N)C(=O)N[C@@H](CCCNC(=N)N)C(=O)N[C@@H](CCCNC(=N)N)C(=O)N[C@@H](CCCCN)C(N)=O)C(C)C)C(C)C` (stereo partly drawn) (Ac-VPPP[X1]PPRRRVPPP[X1]PPRRRK-NH2), the equilibrium dissociation constant (Kd) is under 0.52 µM.

As for `CC(C)[C@H](N)C(=O)N1CCC[C@H]1C(=O)N1CCC[C@H]1C(=O)N1CCC[C@H]1C(=O)N1CCC(C)[C@H]1C(=O)N1CCC[C@H]1C(=O)N1CCC[C@H]1C(=O)N[C@@H](CCCN=C(N)N)C(=O)N[C@@H](CCCN=C(N)N)C(=O)N[C@@H](CCCN=C(N)N)C(=O)O` (stereo partly drawn) (H-VPPP[X1]PPRRR-OH), the Kd worked out at 11.6 µM.

With `CC(C)[C@H](N)C(=O)N1CCC[C@H]1C(=O)N1CCC[C@H]1C(=O)N1CCC[C@H]1C(=O)N1CCC(CC(=O)O)[C@H]1C(=O)N1CCC[C@H]1C(=O)N1CCC[C@H]1C(=O)N[C@@H](CCCNC(=N)N)C(=O)N[C@@H](CCCNC(=N)N)C(=O)N[C@@H](CCCNC(=N)N)C(=O)O` (stereo partly drawn) (H-VPPP[X2]PPRRR-OH), the outcome was inactive.

Consider `CC(C)[C@H](N)C(=O)N1CCC[C@H]1C(=O)N1CCC[C@H]1C(=O)N1CCC[C@H]1C(=O)N1CCC(C[S+](C)[O-])[C@H]1C(=O)N1CCC[C@H]1C(=O)N1CCC[C@H]1C(=O)N[C@@H](CCCNC(=N)N)C(=O)N[C@@H](CCCNC(=N)N)C(=O)N[C@@H](CCCNC(=N)N)C(=O)O` (stereo partly drawn) (H-VPPP[X3]PPRRR-OH), for which the outcome was inactive.

As for `CC(C)[C@H](N)C(=O)N1CCC[C@H]1C(=O)N1CCC[C@H]1C(=O)N1CCC[C@H]1C(=O)N1CCC(CS(=O)(=O)c2ccccc2)[C@H]1C(=O)N1CCC[C@H]1C(=O)N1CCC[C@H]1C(=O)N[C@@H](CCCNC(=N)N)C(=O)N[C@@H](CCCNC(=N)N)C(=O)N[C@@H](CCCNC(=N)N)C(=O)O` (stereo partly drawn) (H-VPPP[X4]PPRRR-OH), the result was inactive.

Consider `CC(C)[C@H](N)C(=O)N1CCC[C@H]1C(=O)N1CCC[C@H]1C(=O)N1CCC[C@H]1C(=O)N1CCC(CO)[C@H]1C(=O)N1CCC[C@H]1C(=O)N1CCC[C@H]1C(=O)N[C@@H](CCCNC(=N)N)C(=O)N[C@@H](CCCNC(=N)N)C(=O)N[C@@H](CCCNC(=N)N)C(=O)O` (stereo partly drawn) (H-VPPP[X5]PPRRR-OH), for which the outcome was inactive.

On to `CC(C)C1CCN(C(=O)[C@@H]2CCCN2C(=O)[C@@H]2CCCN2C(=O)[C@@H]2CCCN2C(=O)[C@@H](N)C(C)C)[C@@H]1C(=O)N1CCC[C@H]1C(=O)N1CCC[C@H]1C(=O)N[C@@H](CCCNC(=N)N)C(=O)N[C@@H](CCCNC(=N)N)C(=O)N[C@@H](CCCNC(=N)N)C(=O)O` (stereo partly drawn) (H-VPPP[X6]PPRRR-OH), for which the outcome was inactive.

With H-VPPPPPPRRR-OH, the outcome was inactive.

By Kd is commonly meant the equilibrium constant for the complex coming apart.
